Drawing on patent publication US7645881B2, “Methods for treating hepatitis C” (PTC Therapeutics, Inc., priority 2004, dated 2010), this text covers IC50 and melting point for 27 compounds.

As a reminder, the melting point is the temperature, or range, at which the solid turns liquid.

In one data set the test system is HCV replicon. The data set can be described thus: microbe, parasite or virus in culture. It counts as cell-based. The note with it: Hepatitis C virus, 48 h, read-out: Replicon IC50s μM.
Take `Cc1nc2sc(C(=O)OC(C)(C)C)c(N)c2c(C)c1OCCN(C)C` [Compound 72]: the IC50 was > 2 µM.

For the compound `COc1ccc(Nc2sc3nc4c(c(-c5cccs5)c3c2C#N)CCCCC4)cc1` [Compound 64], the IC50 was > 2 µM.

As for `Cc1nc2sc(C(=O)OC(C)(C)C)c(N)c2c(C)c1OCCN1CCN(CCCN(C)C)CC1` [Compound 69], the IC50 lay in the range of 0.5 to 2 µM.

With `Cc1nc2sc(-c3nc(COc4ccc(Cl)c(Cl)c4)no3)c(N)c2c(C)c1C` [Compound 18], the IC50 fell in the range of 0.5 to 2 µM.

For `CC(C)(C)OC(=O)c1sc2nc3c(c(-c4cccc(F)c4F)c2c1N)CCCCC3` [Compound 31], the IC50 is > 2 µM.

`COCCN1CCN(CCOc2c(C)nc3sc(C(=O)OC(C)(C)C)c(N)c3c2C)CC1` [Compound 66]: the IC50 is > 2 µM.

Regarding `Cc1nc2sc(-c3nnc(-c4cccc(Cl)c4)o3)c(N)c2c(C)c1C` [Compound 11], the IC50 was > 2 µM.

For `CCc1c(C)nc2sc(C(=O)NCc3ccccc3)c(-c3ccc(OC)cc3)c2c1C` [Compound 44], the IC50 was > 2 µM.

`CCc1c(C)nc2sc(C(C)=O)c(-n3cccc3)c2c1C` [Compound 27]: the IC50 is > 2 µM.

`Cc1nc2sc(-c3nnc(-c4ccc(Cl)s4)o3)c(N)c2c(C)c1C` [Compound 9]: the IC50 is 0.5 to 2 µM.

On to `Cc1nc2sc(C(=O)OC(C)(C)C)c(N)c2c(C)c1OCCN(C)CCN(C)C` [Compound 73], for which the IC50 lay in the range of 0.5 to 2 µM.

Consider `Cc1cc(-c2cccs2)c2c(N)c(C#N)sc2n1` [Compound 30], for which the IC50 was > 2 µM.

Consider `Cc1nc2sc(C(=O)OC(C)(C)C)c(N)c2c(C)c1OCCN1CCCCC1` [Compound 70], for which the IC50 was 0.5 to 2 µM.

For `CCc1c(C)nc2sc(C(=O)OC(C)(C)C)c(-c3cccc(C#N)c3)c2c1C` [Compound 36], the IC50 is > 2 µM.

In the case of `Nc1c(C(=O)Nc2ccc(Br)cc2)sc2nc3c(c(-c4ccco4)c12)CCCCC3` [Compound 51], the IC50 was > 2 µM.

With `Cc1cc(CO)c2c3c(sc2n1)C(=O)NC(c1ccccc1)N3` (centres unmarked) [Compound 38, 4-hydroxymethyl-2-methyl-6-phenyl-6,7-dihydro-5H-9-thia-1,5,7-triaza-fluoren-8-one], the IC50 is > 2 µM.

Regarding `CC(C)(C)OC(=O)c1sc2nc3c(c(-c4ccco4)c2c1N)CCCC3` [Compound 32], the IC50 was > 2 µM.

As to `CC(C)(C)c1cc(C(F)(F)F)c2c(N)c(C(N)=O)sc2n1` [Compound 2], the IC50 was > 2 µM.

On to `CC1(C)Cc2c(c(N3CCOCC3)nc3sc(C(N)=O)c(N)c23)CO1` [Compound 4], for which the IC50 was > 2 µM.

On to `Nc1c(C(=O)Nc2ccccc2)sc2nc3c(cc12)CCCCC3` [Compound 28], for which the IC50 is > 2 µM.

With `CCN1CCN(CCOc2c(C)nc3sc(C(=O)OC(C)(C)C)c(N)c3c2C)CC1` [Compound 74], the IC50 is > 2 µM.

As to `CCc1c(C)nc2sc(C(=O)SC(C)(C)C)c(N)c2c1C` [Compound 56], the IC50 was > 2 µM.

In the case of `CC(C)(C)OC(=O)c1sc2nc3c(c(-c4ccco4)c2c1N)CCC3` [Compound 33], the IC50 is > 2 µM.

`CC(C)(C)OC(=O)c1sc2nc3c(c(-c4cccs4)c2c1N)CCCC3` [Compound 34]: the IC50 was > 2 µM.

For `CCc1c(C)nc2sc(C(=O)N3CCCCC3)c(-c3ccc(OC)cc3)c2c1C` [Compound 41], the IC50 is > 2 µM.

Consider `Cc1nc2sc(C(=O)OC(C)(C)C)c(N)c2c(C)c1OCCN1CCCN(C)CC1` [Compound 68], for which the IC50 fell in the range of 0.5 to 2 µM.

Consider `CCc1c(C)nc2sc(C(=O)OC(C)(C)C)c(-c3ccc(OC)cc3)c2c1C` [Compound 37, t-butyl 5-ethyl-3-(4-methoxy-phenyl)-4,6-dimethyl-thieno[2,3-b]pyridine-2-carboxylate], for which the IC50 is > 2 µM.

Test system in the next data set: not given
Test: not given
Conditions: not given
In turn, `Cc1nc2sc(-c3nc(COc4ccc(Cl)c(Cl)c4)no3)c(N)c2c(C)c1C` [Compound 18] had a melting point of 197 to 200 °C.

As to `COCCN1CCN(CCOc2c(C)nc3sc(C(=O)OC(C)(C)C)c(N)c3c2C)CC1` [Compound 66], the melting point was in the range of 79 to 81 °C.

`Cc1nc2sc(-c3nnc(-c4cccc(Cl)c4)o3)c(N)c2c(C)c1C` [Compound 11]: the melting point was 302 to 303 °C.

Turning to `CCc1c(C)nc2sc(C(C)=O)c(-n3cccc3)c2c1C` [Compound 27], the melting point was in the range of 145 to 147 °C.

As for `Cc1nc2sc(-c3nnc(-c4ccc(Cl)s4)o3)c(N)c2c(C)c1C` [Compound 9], the melting point was 284 to 286 °C.
